The results in this text go back to patent publication US8461328B2, “Tricyclic heterocyclic compounds, compositions and methods of use thereof” (Genentech, Inc., priority 2010, dated 2013).

Holding throughout (assay type): biochemical
Assay [1] addresses T1, JAK1 (Homo sapiens, UniProt P23458).
T1 construct: made in house; host or cells: SF9 insect cells (baculovirus)
In words: JAK1 inhibition (Table 4). As to conditions: read-out: JAK1 Ki.

Assay [2] deals with T2, JAK2 (Homo sapiens, UniProt O60674).
T2 construct: made in house; host or cells: SF9 insect cells (baculovirus)
T2 sequence (O60674 812-1132): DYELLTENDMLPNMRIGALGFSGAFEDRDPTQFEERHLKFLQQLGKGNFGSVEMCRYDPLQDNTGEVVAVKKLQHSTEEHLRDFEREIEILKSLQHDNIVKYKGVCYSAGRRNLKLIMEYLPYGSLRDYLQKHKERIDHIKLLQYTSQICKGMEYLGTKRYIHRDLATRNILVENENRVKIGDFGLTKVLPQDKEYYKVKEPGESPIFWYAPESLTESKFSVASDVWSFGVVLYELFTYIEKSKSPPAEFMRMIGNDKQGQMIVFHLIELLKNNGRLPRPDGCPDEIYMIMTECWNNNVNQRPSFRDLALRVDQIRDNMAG
In words: JAK2 inhibition (Table 4). As to conditions: read-out: JAK2 Ki.

In assay [3] the target is T3, JAK3 (Homo sapiens, UniProt P52333).
T3 construct: made in house; host or cells: SF9 insect cells (baculovirus)
T3 sequence (P52333 783-1124): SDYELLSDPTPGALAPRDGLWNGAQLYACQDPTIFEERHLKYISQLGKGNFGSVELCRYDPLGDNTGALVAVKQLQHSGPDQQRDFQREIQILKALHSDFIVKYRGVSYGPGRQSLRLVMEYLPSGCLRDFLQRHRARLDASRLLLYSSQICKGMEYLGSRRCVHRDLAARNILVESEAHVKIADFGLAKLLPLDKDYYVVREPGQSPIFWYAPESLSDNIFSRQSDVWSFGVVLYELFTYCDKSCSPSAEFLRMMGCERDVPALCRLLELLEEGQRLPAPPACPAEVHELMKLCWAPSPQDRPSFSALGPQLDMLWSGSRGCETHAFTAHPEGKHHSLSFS
The assay can be described thus: JAK3 inhibition (Table 4). As to conditions: read-out: JAK3 Ki.

Assay [4] deals with T4, TYK2 (Homo sapiens, UniProt P29597).
T4 construct: made in house; host or cells: SF9 insect cells (baculovirus)
T4 sequence (P29597 873-1187): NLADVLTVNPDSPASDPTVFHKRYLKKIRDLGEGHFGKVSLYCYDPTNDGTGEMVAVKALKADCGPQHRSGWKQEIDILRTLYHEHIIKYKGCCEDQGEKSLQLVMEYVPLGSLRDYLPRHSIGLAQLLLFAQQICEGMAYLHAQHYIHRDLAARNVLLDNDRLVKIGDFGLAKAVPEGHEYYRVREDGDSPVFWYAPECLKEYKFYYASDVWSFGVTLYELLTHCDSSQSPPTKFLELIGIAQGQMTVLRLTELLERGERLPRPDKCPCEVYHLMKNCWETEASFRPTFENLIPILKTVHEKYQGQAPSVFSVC
In words: TYK2 inhibition (Table 4).

Each structure is given as a SMILES string.

T1 sequence (P23458 852-1154): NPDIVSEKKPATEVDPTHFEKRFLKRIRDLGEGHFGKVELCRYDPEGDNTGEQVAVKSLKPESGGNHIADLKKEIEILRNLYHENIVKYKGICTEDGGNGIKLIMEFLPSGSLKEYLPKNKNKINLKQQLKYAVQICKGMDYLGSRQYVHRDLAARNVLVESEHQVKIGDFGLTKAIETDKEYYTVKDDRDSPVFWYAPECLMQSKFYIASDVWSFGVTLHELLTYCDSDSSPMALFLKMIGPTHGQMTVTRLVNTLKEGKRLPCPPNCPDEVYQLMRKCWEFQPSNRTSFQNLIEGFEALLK

In general, Ki refers to a dissociation constant, usually derived from enzyme kinetics or from competition with a known ligand. Turning to `O=S1(=O)CCN(C2CCC(n3cnc4cnc5[nH]ccc5c43)CC2)CC1` (centres unmarked) [Example 766, 1-[4-(1,1-Dioxo-thiomorpholin-4-yl)-cyclohexyl]-1,6-dihydro-1,3,5,6-tetraaza-as-indacene], the Ki in assay [1] was 0.97 nM; in assay [2], 3.07 nM; in assay [3], 68.5 nM; in assay [4] it was 21.1 nM.

`Cc1nc2cnc3[nH]ccc3c2n1C1CCC(N2CCC(F)(F)CC2)CC1` (centres unmarked) [Example 767, 1-[4-(4,4-Difluoro-piperidin-1-yl)-cyclohexyl]-2-methyl-1,6-dihydro-1,3,5,6-tetraaza-as-indacene]: the Ki in assay [1] is 2.81 nM; in assay [2] it was 10.7 nM; in assay [3] it was 155 nM; in assay [4] it was 36.9 nM.

As to `Cc1nc2cnc3[nH]ccc3c2n1C1CCC(N2CCC(C#N)CC2)CC1` (centres unmarked) [Example 768, 1-[4-(2-Methyl-6H-1,3,5,6-tetraaza-as-indacen-1-yl)-cyclohexyl]-piperidine-4-carbonitrile], the Ki in assay [1] stood at 1.77 nM; in assay [2] it was 6.47 nM; in assay [3], 85.9 nM; in assay [4] it was 23.4 nM.

In the case of `CNC(=O)OC1CCC(n2cnc3cnc4[nH]ccc4c32)CC1` (centres unmarked) [Example 769, Methyl-carbamic acid 4-(6H-1,3,5,6-tetraaza-as-indacen-1-yl)-cyclohexyl ester], the Ki worked out at 9.6 nM in assay [1], 16.6 nM in assay [2], 104 nM in assay [3] and 62.5 nM in assay [4].

As to `COCCNc1nc2cnc3[nH]ccc3c2n1C1CCN(CCC#N)CC1` [Example 770, 3-{4-[2-(2-Methoxy-ethylamino)-6H-1,3,5,6-tetraaza-as-indacen-1-yl]-piperidin-1-yl}-propionitrile], the Ki was 8.8 nM in assay [1], 32.7 nM in assay [2], 42.7 nM in assay [3] and 207 nM in assay [4].

`CNc1nc2cnc3[nH]ccc3c2n1C1CCN(CCC#N)CC1` [Example 771, 3-[4-(2-Methylamino-6H-1,3,5,6 tetraaza-asindacen-1-yl)-piperidin-1-yl]-propionitrile]: the Ki in assay [1] is 2.06 nM; in assay [2], 6.62 nM; in assay [3] it was 19.1 nM; in assay [4] it was 27.8 nM.

Consider `CNc1nc2cnc3[nH]ccc3c2n1C1CCN(Cc2cccc(C#N)c2)CC1` [Example 772, 3-[4-(2-Methylamino-6H-1,3,56-tetraaza-as-indacen-1-yl)-piperidine-1-yl-methyl]-benzonitrile], for which the Ki in assay [1] amounted to 1.36 nM; in assay [2] it was 5.7 nM; in assay [3] it was 43.5 nM; in assay [4], 320 nM.

For the compound `CNc1nc2cnc3[nH]ccc3c2n1C1CCCOC1` (centres unmarked) [Example 773, Methyl-[1-(tetrahydro-pyran-3-yl)-1,6-dihydro-1,3,5,6-tetraaza-as-indacen-2-yl]-amine], the Ki in assay [1] came to 12.2 nM; in assay [2], 81.4 nM; in assay [3], 126 nM; in assay [4], 149 nM.

Regarding `CNc1nc2cnc3[nH]ccc3c2n1C1CCN(S(C)(=O)=O)CC1` [Example 774, [1-(1-Methanesulfonyl-piperidin-4-yl) 1,6-dihydro-1,3,5,6-tetraaza-as-indacen-1-yl]-methyl-amine], the Ki in assay [1] is 40.7 nM; in assay [2], 82.7 nM; in assay [3] it was 242 nM; in assay [4], 141 nM.

Regarding `C[C@@H](O)c1nc2cnc3[nH]ccc3c2n1C1CCC(C#N)CC1` (stereo partly drawn) [Example 776, 4-[2-((R)-1-Hydroxy-ethyl)-6H-1,3,5,6-tetraaza-as-indacen-1-yl]-cyclohexanecarbonitrile], the Ki in assay [1] was 0.99 nM; in assay [2], 10.4 nM; in assay [3], 1.88 nM; in assay [4] it was 0.73 nM.

As to `N#CC1CCC(n2c(CO)nc3cnc4[nH]ccc4c32)CC1` (centres unmarked) [Example 777, 4-(2-Hydroxymethyl-6H-1,3,5,6-tetraaza-as-indacen-1-yl)-cyclohexanecarbonitrile], the inhibition constant Ki stood at 1.3 nM in assay [1], 6.86 nM in assay [2], 1.04 nM in assay [3] and 0.64 nM in assay [4].
